In patent US20130142819A1, “LEISHMANICIDAL FORMULATION AND ITS USE” (priority 2010, published 2013):

Legend:
Experiment in all cases: Leishmanicidal activity, MTT viability assay, promastigotes
Format in all cases: cell-based
Conditions in all cases: 50 μg/mL; average ± standard deviation
[1] = tested on: stationary phase promastigotes of L. major
Description: (§1) In a cell culture plate of 96 wells (Nunc, Nunclon®), 4×10^5 promastigote and amastigote-like forms of species Leishmania amazonensis, L. major and L. chagasi were incubated with 25 to 200 μg/mL of the aqueous extract of the fungus in RPMI-PR medium for a final volume of 100 μL, for 24 h at 25° C. Then it was added 50 uL of MTT reagent (Thiazoly Blue Tetrazolium Bromide 98%; in stock concentration of 5 mg/mL) and the plate was incubated for 4 hours at 25° C. The cells were analyzed on a microscope to verify the formation of formazan crystals. Shortly after it was added 60 μL of a SDS 10%/HCL 0.1 M solution to solubilize formazan crystals and the plate was incubated for 18 h. The absorbance readings were then performed using a spectrophotometer at a wavelength of 570 nanometers (nm) (see FIGS. 1 and 2; Table 1 and 2).
(§2) Through the absorbance readings collected in experiments, Tables 1 and 2 were generated to represent the percentage of leishmanicidal activity of aqueous extract against the three Leishmania species tested in two manners. The calculation of the percentage of death of the parasites was based in the formula below, using the absorbance readings: […]
(§3) The experiment was conducted by the cellular viability protocol by impregnating the MTT reagent and the concentration of 50 μg/mL of the aqueous extract of the fungus and the purified fractions were used. […]

[2] = tested on: stationary phase promastigotes of L. chagasi
Description: as §1, §2, §3

[3] = tested on: stationary phase promastigotes of L. amazonensis
Description: as §1, §2, §3

C[C@@H]1[C@H](O)[C@@H](C)/C=C/C=C/C=C/C=C/C=C/C=C/C=C/[C@H](O[C@@H]2O[C@H](C)[C@@H](O)[C@H](N)[C@@H]2O)C[C@@H]2O[C@](O)(C[C@@H](O)C[C@@H](O)[C@H](O)CC[C@@H](O)C[C@@H](O)CC(=O)O[C@H]1C)C[C@H](O)[C@H]2C(=O)O [Amphotericin B, amphotericin B]
Average percentage of death of stationary phase promastigote forms, L. major [1]: 42.51 ± 2.00%
Average percentage of death of stationary phase promastigote forms, L. chagasi [2]: 35.12 ± 2.61%
Average percentage of death of stationary phase promastigote forms, L. amazonensis [3]: 40.06 ± 1.17%
